According to patent US11267812B2 (Mirati Therapeutics, Inc., priority 2016, dated 2022):
Read-outs that look alike come from different tables or passages of the source.

Tests used:
[1] = tested on: Phospho-ERK in NCI-H358 cells expressing KRas G12C; assay: Cellular inhibition of KRas G12C by Phospho-ERK measurement in NCI-H358 cells; format: cell-based; conditions: Homo sapiens, read-out: IC50 (pERK(Thr202/Tyr204) normalized with GAPDH)
Outline: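 After 8–12 h attachment, NCI-H358 cells were treated with compounds for 3 h (0.5% DMSO final), fixed, methanol-permeabilized and immunostained. pERK(Thr202/Tyr204) was read by infrared imaging and normalized to GAPDH as percent of DMSO control. IC50 came from a 4-parameter fit.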

KRas G12C = KRas G12C (Homo sapiens, UniProt P01116, C118S/C51S/C80L/G12C); assay: KRas G12C Modification Assay (LCMS detection of covalent adduct); format: binding; conditions: 5 μM compound, 3 hours
Description: A 10 μL aliquot of each protein solution was then transferred to a 384 well microtiter plate. Initial compound stocks were generated at fifty times their desired final assay concentration in DMSO.
Exemplary compounds of Formula (I) were diluted 25-fold into K-Ras Assay Buffer to a final of two times their final concentration. A 10 μL aliquot of each diluted compound solution was then added to each of the protein solutions in the microtiter plate to initiate reaction. […] At each time point, the reactions were quenched with 20 μL of a 25 mM acetic acid solution. […] Once all reactions were quenched, the plates were heat sealed and the samples were injected into a LC/MS system for data acquisition.
Samples were injected in their liquid phase onto a C-3 reverse phase column to remove assay buffer and prepare the samples for mass spectrometer. The proteins were eluted from the column using an acetonitrile gradient and fed directly into the mass analyzer. Initial raw data analysis took place in Agilent MassHunter software immediately post data acquisition.
Raw data analysis of the intact protein was exclusively a deconvolution of the multiple charge states of each protein in solution using a maximum entropy deconvolution provided in Mass Hunter. To minimize complexity, only the data over limited mass ranges were considered for analysis, with a minimum of one Dalton mass step intervals. The heights of all masses identified during raw data analysis were exported to be further analyzed in Spotfire® data analysis software.
Final data analysis was a multistep process in the Spotfire® data analysis software package. Briefly, each protein mass was calculated as a percent of the total signal of that sample, that percentage was then normalized to the percentage of signal of the protein in the absence of reactive compounds. Those normalized signals were reported as normalized percent of control (POC). […] Key: “A”≤25% POC; “B”>25% POC≤50% POC; “C”>50% POC and ND=not determined.

[2] = NCI-H358 cells, 3 hours compound treatment

SMILES | IC50 [1, 2] | POC (normalized percent of control, KRas G12C modification) (KRas G12C) | IC50 ([1]; NCI-H358, 3 h)
C=CC(=O)N1CCN(c2nc(OC[C@@H]3CCCN3CC3CC3)nc3c2CCN(c2cccc4ccccc24)C3)CC1CC#N (stereo partly drawn) [Example 257, 2-(1-acryloyl-4-(2-(((S)-1-(cyclopropylmethyl)pyrrolidin-2-yl)methoxy)-7-(naphthalen-1-yl)-5,6,7,8-tetrahydropyrido[3,4-d]pyrimidin-4-yl)piperazin-2-yl)acetonitrile] | 1 to 1000 nM | C (“C”>50% POC) | 
C=CC(=O)N1CCN(c2nc(OCCN(C)C)nc3c2CCN(c2cc(O)cc4ccccc24)C3)CC1CC#N (stereo not shown) [Example 170, 2-(1-acryloyl-4-(2-(2-(dimethylamino)ethoxy)-7-(3-hydroxynaphthalen-1-yl)-5,6,7,8-tetrahydropyrido[3,4-d]pyrimidin-4-yl)piperazin-2-yl)acetonitrile] | 1 to 1000 nM | C (“C”>50% POC) | 
C=CC(=O)N1CCN(c2nc(OC[C@@H]3CCN(C)C3)nc3c2CCN(c2cccc4ccccc24)C3)CC1CC#N (stereo partly drawn) [Example 177, 2-[4-[2-[[(3R)-1-methylpyrrolidin-3-yl]methoxy]-7-(1-naphthyl)-6,8-dihydro-5H-pyrido[3,4-d]pyrimidin-4-yl]-1-prop-2-enoyl-piperazin-2-yl]acetonitrile] | 1 to 1000 nM | C (“C”>50% POC) | 
CC#CC(=O)N1CCN(c2nc(OC[C@@H]3CCCN3C)nc3c2CCN(c2cccc4ccccc24)C3)CC1CC#N (stereo partly drawn) [Example 242, 2-(1-(but-2-ynoyl)-4-(2-(((S)-1-methylpyrrolidin-2-yl)methoxy)-7-(naphthalen-1-yl)-5,6,7,8-tetrahydropyrido[3,4-d]pyrimidin-4-yl)piperazin-2-yl)acetonitrile] |  | C (“C”>50% POC) | 1 to 1000 nM
C=CC(=O)N1CCN(c2nc(OCCCN3CC4CC4C3)nc3c2CCN(c2cc(O)cc4ccccc24)C3)CC1 (stereo not shown) [Example 206, 1-(4-(2-(3-(3-azabicyclo[3.1.0]hexan-3-yl)propoxy)-7-(3-hydroxynaphthalen-1-yl)-5,6,7,8-tetrahydropyrido[3,4-d]pyrimidin-4-yl)piperazin-1-yl)prop-2-en-1-one] | 1 to 1000 nM | C (“C”>50% POC) | 
C=CC(=O)N1CCN(c2nc(OC[C@H]3CCCN3C)nc3c2CCN(c2cccc4ccccc24)C3)C[C@@H]1CC#N [Example 267, 2-((S)-1-acryloyl-4-(2-(((R)-1-methylpyrrolidin-2-yl)methoxy)-7-(naphthalen-1-yl)-5,6,7,8-tetrahydropyrido[3,4-d]pyrimidin-4-yl)piperazin-2-yl)acetonitrile] |  | C (“C”>50% POC) | 1 to 1000 nM
C=CC(=O)N1CCN(c2nc(OC[C@@H]3CCCN3C)nc3c2CCN(c2ccccc2C(F)(F)F)C3)CC1CC#N (stereo partly drawn) [Example 210, 2-(1-acryloyl-4-(2-(((S)-1-methylpyrrolidin-2-yl)methoxy)-7-(2-(trifluoromethyl)phenyl)-5,6,7,8-tetrahydropyrido[3,4-d]pyrimidin-4-yl)piperazin-2-yl)acetonitrile] | 1 to 1000 nM | C (“C”>50% POC) | 
C=CC(=O)N1CCN(c2nc(OC[C@@H]3CCCN3C)nc3c2CCN(c2c(C)c(O)cc4ccccc24)C3)CC1 [Example 175, (S)-1-(4-(7-(3-hydroxy-2-methylnaphthalen-1-yl)-2-((1-methylpyrrolidin-2-yl)methoxy)-5,6,7,8-tetrahydropyrido[3,4-d]pyrimidin-4-yl)piperazin-1-yl)prop-2-en-1-one] | 1 to 1000 nM | C (“C”>50% POC) | 
C=CC(=O)N1CCN(c2nc(OC[C@@H]3CCCN3C)nc3c2CCN(c2cc(O)cc4ccccc24)C3)CC1CC#N (stereo partly drawn) [Example 182, 2-[4-[7-(3-hydroxy-1-naphthyl)-2-[[(2S)-1-methylpyrrolidin-2-yl]methoxy]-6,8-dihydro-5H-pyrido[3,4-d]pyrimidin-4-yl]-1-prop-2-enoyl-piperazin-2-yl]acetonitrile] | 1 to 1000 nM | C (“C”>50% POC) | 
C=CC(=O)N1CCN(c2nc(O[C@H](C)CN(C)CC)nc3c2CCN(c2cc(O)cc4ccccc24)C3)CC1 [Example 131, 1-[4-[2-[(1R)-2-[ethyl(methyl)amino]-1-methyl-ethoxy]-7-(3-hydroxy-1-naphthyl)-6,8-dihydro-5H-pyrido[3,4-d]pyrimidin-4-yl]piperazin-1-yl]prop-2-en-1-one] | 1 to 1000 nM | C (“C”>50% POC) | 
C=CC(=O)N1CCN(c2nc(OCCCN3C[C@H]4C[C@@H]3CO4)nc3c2CCN(c2cc(O)cc4ccccc24)C3)CC1 [Example 185, 1-(4-(2-(3-((1R,4R)-2-oxa-5-azabicyclo[2.2.1]heptan-5-yl)propoxy)-7-(3-hydroxynaphthalen-1-yl)-5,6,7,8-tetrahydropyrido[3,4-d]pyrimidin-4-yl)piperazin-1-yl)prop-2-en-1-one] | 1 to 1000 nM | C (“C”>50% POC) | 
C=CC(=O)N1CCN(c2nc(OC[C@]3(C)CCCN3C)nc3c2CCN(c2cccc4ccccc24)C3)CC1CC#N (stereo partly drawn) [Example 251, 2-(1-acryloyl-4-(2-(((S)-1,2-dimethylpyrrolidin-2-yl)methoxy)-7-(naphthalen-1-yl)-5,6,7,8-tetrahydropyrido[3,4-d]pyrimidin-4-yl)piperazin-2-yl)acetonitrile] | 1 to 1000 nM | C (“C”>50% POC) | 
C=CC(=O)N1CCN(c2nc(OC[C@@H]3CCCN3C)nc3c2CCN(c2c(C)ccc4[nH]ncc24)C3)CC1CC#N (stereo partly drawn) [Example 148, 2-[4-[7-(5-methyl-1H-indazol-4-yl)-2-[[(2S)-1-methylpyrrolidin-2-yl]methoxy]-6,8-dihydro-5H-pyrido[3,4-d]pyrimidin-4-yl]-1-prop-2-enoyl-piperazin-2-yl]acetonitrile] | 1 to 1000 nM | C (“C”>50% POC) | 
C=CC(=O)N1CCN(c2nc(OCCCO)nc3c2CCN(c2cccc4ccccc24)C3)CC1CC#N (stereo not shown) [Example 231, 2-(1-acryloyl-4-(2-(3-hydroxypropoxy)-7-(naphthalen-1-yl)-5,6,7,8-tetrahydropyrido[3,4-d]pyrimidin-4-yl)piperazin-2-yl)acetonitrile] | 1 to 1000 nM | C (“C”>50% POC) | 
C=CC(=O)N1CCN(c2nc(OC[C@@H]3CCCN3C)nc3c2CCN(c2cccc4ccccc24)C3)CC1CC#N (stereo partly drawn) [Example 147, 2-[4-[2-[[(2S)-1-methylpyrrolidin-2-yl]methoxy]-7-(1-naphthyl)-6,8-dihydro-5H-pyrido[3,4-d]pyrimidin-4-yl]-1-prop-2-enoyl-piperazin-2-yl]acetonitrile] |  | C (“C”>50% POC) | 1 to 1000 nM
C=CC(=O)N1CCN(c2nc(OC[C@H]3CCCN3C)nc3c2CCN(c2cccc4ccccc24)C3)CC1CC#N (stereo partly drawn) [Example 183, 2-[4-[2-[[(2R)-1-methylpyrrolidin-2-yl]methoxy]-7-(1-naphthyl)-6,8-dihydro-5H-pyrido[3,4-d]pyrimidin-4-yl]-1-prop-2-enoyl-piperazin-2-yl]acetonitrile] |  | C (“C”>50% POC) | 1 to 1000 nM
C=CC(=O)N1CCN(c2nc(OC[C@@H]3CCCN3C)nc3c2CCN(c2ccccc2C(C)C)C3)CC1 [Example 158, 1-[4-[7-(2-isopropylphenyl)-2-[[(2S)-1-methylpyrrolidin-2-yl]methoxy]-6,8-dihydro-5H-pyrido[3,4-d]pyrimidin-4-yl]piperazin-1-yl]prop-2-en-1-one] |  | C (“C”>50% POC) | 
C=CC(=O)N1CCN(c2nc(OCCN3CCC[C@@H](F)C3)nc3c2CCN(c2cc(O)cc4ccccc24)C3)CC1 [Example 207, (R)-1-(4-(2-(2-(3-fluoropiperidin-1-yl)ethoxy)-7-(3-hydroxynaphthalen-1-yl)-5,6,7,8-tetrahydropyrido[3,4-d]pyrimidin-4-yl)piperazin-1-yl)prop-2-en-1-one] |  | C (“C”>50% POC) | 
